In test [1] the test system is IL-4 stimulated expression of CD23 in human Ramos B cells (JAK-1 and JAK-3). Put plainly: Assay for Ramos B-Cell Line Stimulated with IL-4 (CD23 upregulation, FACS). The format is cell-based. The conditions noted are these: read-out: IC50, Example 41. The gist of the method:
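Log-phase Ramos cells, 1 h compound pre-incubation at 37 °C; IL-4 50 units/mL final, 20-24 h; CD23-PE stain, FACS; IC50.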

Another test deals with Primary human T-cells. Put plainly: Primary Human T-Cell Proliferation Assay Stimulated with IL-2 (CellTiter-Glo). The format is cell-based. Particulars: read-out: IC50, Example 42. The procedure, abridged:
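Peripheral blood T-cells pre-activated with anti-CD3/anti-CD28 and IL-2 were washed free of IL-2, then cultured with compound plus IL-2 for 72 hours at 37° C, duplicate wells. Viability read as ATP by CellTiter-Glo luminescence; IC50 reported.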
For orientation: Cellular ATP, detected with luciferase, serves as a proxy for viable cell number.

[2] abbreviates: Homo sapiens, Ramos, Ramos B cells stimulated with IL-4, CD23 expression by FACS.
The mark [3] stands for this setting: Homo sapiens, T-cell, primary human T-cells stimulated with IL-2, proliferation.
Setting [4] is: Ramos B cells stimulated with IL-4, CD23 expression by FACS.
Where [5] appears, read: primary human T-cells stimulated with IL-2, proliferation.
Where [6] appears, read: Ramos B-cell line stimulated with IL-4, CD23 expression by FACS.
Setting [7] is: primary human T-cell proliferation stimulated with IL-2.

The IC50 is the concentration at which inhibition is half-maximal.

Like-named read-outs stand apart in the source and are kept apart here.

With `Cc1ccc(Nc2nc(Nc3cccc(S(N)(=O)=O)c3)ncc2F)cc1C#N` [VI-99, N2-(3-Aminosulfonylphenyl)-N4-(3-cyano-4-methylphenyl)-5-fluoro-2,4-pyrimidinediamine], the IC50 in test [1] (setting [2]) came out at 68.5 nM; with Primary human T-cells (setting [3]) it was 617 nM.
Take `COc1ccc(Nc2nc(Nc3ccc(S(N)(=O)=O)cc3)ncc2F)cc1Cl` [VI-106, N2-(4-Aminosulfonylphenyl)-5-fluoro-N4-(4-methoxy-3-chlorophenyl]-2,4-pyrimidinediamine]: the figures for the IC50 (in test [1] (setting [2]); with Primary human T-cells (setting [3])) were 62.2 nM and 1200 nM, respectively.
For `NS(=O)(=O)c1ccc(Nc2ncc(F)c(Nc3ccc(Cl)c(Cl)c3)n2)cc1` [VI-109, N2-(4-Aminosulfonylphenyl)-N4-(3,4-dichlorophenyl)-5-fluoro-2,4-pyrimidinediamine], in that order: 136 nM and 2870 nM.
As for `COc1ccc(Nc2nc(Nc3cccc(S(N)(=O)=O)c3)ncc2F)nc1N` [VII-7, N2-(3-Aminosulfonylphenyl)-N4-(2-amino-3-methoxypyrid-6-yl)-5-fluoro-2,4-pyrimidinediamine], the IC50 in test [1] (setting [2]) was found to be 502 nM; with Primary human T-cells (setting [3]) it was 3920 nM.
`COc1ccc(Nc2nc(Nc3ccc(Cl)c(S(N)(=O)=O)c3)ncc2F)nc1N` [VII-8, N2-(3-Aminosulfonyl-4-chlorophenyl)-N4-(2-amino-3-methoxypyrid-6-yl)-5-fluoro-2,4-pyrimidinediamine]: the results for the IC50 (in test [1] (setting [2]); in the test with Primary human T-cells (setting [3])) were 399 nM and 8630 nM, respectively.
Consider `CNC(=O)N1CCCc2cc(Nc3nc(Nc4cccc(S(N)(=O)=O)c4)ncc3F)ccc21` [VII-20, N2-(3-Aminosulfonylphenyl)-5-fluoro-N4-[1-(methylaminocarbonyl)-1,2,3,4-tetrahydroquin-6-yl]-2,4-pyrimidinediamine], for which the concentration for half-maximal inhibition (IC50) in test [1] (setting [4]) is 286 nM; in the test on Primary human T-cells (setting [5]), 698 nM.
Turning to `Cc1ccc(Nc2ncc(C)c(Nc3ccc4c(c3)N(C)C(=O)CS4)n2)cc1S(N)(=O)=O` [VII-33, N2-(3-Aminosulphonyl-4-methylphenyl)-5-methyl-N4-(4-methyl-3-oxo-benzo[1,4]thiazin-6-yl)-2,4-pyrimidinediamine], the IC50 was 28.9 nM in test [1] (setting [2]) and 18.4 nM with Primary human T-cells (setting [3]).
For `Cc1cnc(Nc2ccc(S(N)(=O)=O)cc2)nc1Nc1ccc2c(c1)N(C)C(=O)CS2` [VII-34, N2-(4-Aminosulphonylphenyl)-5-methyl-N4-(4-methyl-3-oxo-benzo[1,4]thiazin-6-yl)-2,4-pyrimidinediamine], in that order: 45 nM and 22.5 nM.
Turning to `COc1c(C)cc(Nc2ncc(F)c(Nc3ccc4c(c3)NC(=O)C(F)(F)O4)n2)cc1S(N)(=O)=O` [VII-38, N2-(3-Aminosulfonyl-4-methoxy-5-methylphenyl)-N4-(2,2-difluoro-4H-benz[1,4]oxazin-3-on-6-yl)-5-fluoro-2,4-pyrimidinediamine], the IC50 in test [1] (setting [2]) is 62.3 nM; in the test with Primary human T-cells (setting [3]), 417 nM.
In the case of `CC1(C)Oc2ccc(Nc3nc(Nc4cccc(S(N)(=O)=O)c4)ncc3N)cc2NC1=O` [VII-39, 5-Amino-N2-(3-amionsulfonylphenyl)-N4-(2,2-dimethyl-3-oxo-4H-benz[1,4]oxazin-6-yl)-2,4-pyrimidinediamine], the IC50 turned out to be 772 nM in test [1] (setting [4]) and 919 nM with Primary human T-cells (setting [5]).
As to `CN1C(=O)COc2ccc(Nc3nc(Nc4ccc(S(N)(=O)=O)cc4)ncc3F)cc21` [VII-40, N2-(4-Aminosulfonylphenyl)-5-fluoro-N4-(4-methyl-3-oxo-benz[1,4]oxazin-6-yl)-2,4-pyrimidinediamine], the IC50 in test [1] (setting [2]) turned out to be 236 nM; with Primary human T-cells (setting [3]) it was 6480 nM.
On to `CN1C(=O)COc2ccc(Nc3nc(Nc4cccc(S(N)(=O)=O)c4)ncc3F)cc21` [VII-41, N2-(3-Aminosulfonylphenyl)-5-fluoro-N4-(4-methyl-3-oxo-benz[1,4]oxazin-6-yl)-2,4-pyrimidinediamine], for which the results for the IC50 (in test [1] (setting [2]); in the test on Primary human T-cells (setting [3])) were 46.9 nM and 264 nM, respectively.
As for `CC1(C)Oc2cc(Nc3nc(Nc4cccc(S(N)(=O)=O)c4)ncc3F)cnc2NC1=O` [VII-51, N2-(3-Aminosulfonylphenyl)-N4-[2,2-dimethyl-3-oxo-4H-5-pyrid[1,4]oxazin-7-yl]-5-fluoro-2,4-pyrimidinediamine], the IC50 was 541 nM in test [1] (setting [4]) and 1790 nM in the test with Primary human T-cells (setting [5]).
In the case of `CC(C)(C)OC(=O)NC1CCOc2ccc(Nc3nc(Nc4ccc(S(N)(=O)=O)cc4)ncc3F)cc21` (centres unmarked) [VII-59, N2-(4-Aminosulfonylphenyl)-N4-(4-N-tert-butoxycarbonylamino-3,4-dihydro-2H-1-benzopyran-6-yl)-5-fluoro-2,4-pyrimidinediamine], the IC50 is 831 nM in test [1] (setting [4]) and 2990 nM with Primary human T-cells (setting [5]).
For `Cc1ccc(Nc2ncc(F)c(Nc3ccc4ccccc4n3)n2)cc1S(N)(=O)=O` [VII-64, N2-(3-Aminosulfonyl-4-methylphenyl)-5-fluoro-N4-(quinolin-2-yl)-2,4-pyrimidinediamine], the figures for the IC50 (in test [1] (setting [2]); in the test with Primary human T-cells (setting [3])) were 363 nM and 3810 nM, respectively.
For `Cc1ccc(Nc2ncc(F)c(Nc3cnc4ccccc4c3)n2)cc1S(N)(=O)=O` [VII-65, N2-(3-Aminosulfonyl-4-methylphenyl)-5-fluoro-N4-(quinolin-3-yl)-2,4-pyrimidinediamine], in that order: 385 nM and 3060 nM.
For the compound `NS(=O)(=O)c1cccc(Nc2ncc(F)c(Nc3cnc4ccccc4c3)n2)c1` [VII-66, N2-(3-Aminosulfonylphenyl)-5-fluoro-N4-(quinolin-3-yl)-2,4-pyrimidinediamine], the IC50 was determined as 369 nM in test [1] (setting [2]) and 2870 nM in the test with Primary human T-cells (setting [3]).
Turning to `Cc1ccc(Nc2ncc(F)c(Nc3cccc4ncccc34)n2)cc1S(N)(=O)=O` [VII-67, N2-(3-Aminosulfonyl-4-methylphenyl)-5-fluoro-N4-(quinolin-5-yl)-2,4-pyrimidinediamine], the values for the IC50 (in test [1] (setting [2]); with Primary human T-cells (setting [3])) were 315 nM and 768 nM, respectively.
For `NS(=O)(=O)c1cccc(Nc2ncc(F)c(Nc3cccc4ncccc34)n2)c1` [VII-68, N2-(3-Aminosulfonylphenyl)-5-fluoro-N4-(quinolin-5-yl)-2,4-pyrimidinediamine] the same measures were 812 nM and 1300 nM.
On to `NS(=O)(=O)c1cccc(Nc2ncc(F)c(Nc3cccc4cccnc34)n2)c1` [VII-78, N2-(3-Aminosulfonylphenyl)-5-fluoro-N4-(quinolin-8-yl)-2,4-pyrimidinediamine], for which the IC50 in test [1] (setting [2]) came out at 85.8 nM; in the test with Primary human T-cells (setting [3]), 682 nM.
For `NS(=O)(=O)c1cc(Nc2ncc(F)c(Nc3cccc4cccnc34)n2)ccc1F` [VII-79, N2-(3-Aminosulfonyl-4-fluorophenyl)-5-fluoro-N4-(quinolin-8-yl)-2,4-pyrimidinediamine] the same measures were 206 nM and 3200 nM.
With `Cc1ccc(Nc2ncc(F)c(N[C@H]3[C@@H](C(N)=O)[C@@H]4C=C[C@H]3C4)n2)cc1S(N)(=O)=O` [VII-82, (1R,2R,3S,4S)N4-(3-Aminocarbonylbicyclo[2.2.1]hept-5-en-2-yl)-N2-(3-aminosulfonyl-4-methylphenyl)-5-fluoro-2,4-pyrimidinediamine], the IC50 in test [1] (setting [2]) stood at 313 nM; with Primary human T-cells (setting [3]), 1080 nM.
On to `COc1c(C)cc(Nc2ncc(F)c(N[C@H]3[C@@H](C(N)=O)[C@@H]4C=C[C@H]3C4)n2)cc1S(N)(=O)=O` [VII-83, (1R,2R,3S,4S)N2-(3-Aminosulfonyl-4-methoxy-5-methylphenyl)-N4-(3-aminocarbonylbicyclo[2.2.1]hept-5-ene-2-yl)-5-fluoro-2,4-pyrimidinediamine], for which the values for the 50% inhibitory concentration (IC50) (in test [1] (setting [2]); in the test with Primary human T-cells (setting [3])) were 77.5 nM and 937 nM, respectively.
Consider “N2-(3-Aminocarbonyl-5-methylphenyl)-5-fluoro-N2-[4-(1H-pyrazol-5-yl)amidophenyl)-2,4-pyrimidinediamine [II-22]”, for which the figures for the half-maximal inhibitory concentration (IC50) (in test [1] (setting [6]); with Primary human T-cells (setting [7])) were 858 nM and 7490 nM, respectively.
Consider “N2-(3-Aminosulfonyl-4-chlorophenyl)-N4-(4-benzylphenyl)-5-fluoro-2,4-pyrimidinediamine [III-64]”, for which the IC50 is 447 nM in test [1] (setting [6]) and 5960 nM in the test on Primary human T-cells (setting [7]).
Regarding “N2-(3-Aminosulfonyl-4-methoxy-5-methylphenyl)-5-fluoro-N4-(4-trifluoromethylphenyl)-2,4-pyrimidinediamine [VI-34]”, the IC50 in test [1] (setting [4]) is 157 nM; with Primary human T-cells (setting [5]), 839 nM.
With “N2-(3-Aminosulfonyl-4-methoxy-5-methylphenyl)-N4-(4-benzylphenyl)-5-fluoro-2,4-pyrimidinediamine [III-65]”, the IC50 is 209 nM in test [1] (setting [6]) and 936 nM in the test with Primary human T-cells (setting [7]).
With “N2-(3-Aminosulfonyl-4-methoxy-5-methylphenyl)-N4-(4-chloro-3-trifluoromethyl-phenyl)-5-fluoro-2,4-pyrimidinediamine [VI-40]”, the values for the concentration for half-maximal inhibition (IC50) (in test [1] (setting [4]); with Primary human T-cells (setting [5])) were 288 nM and 1240 nM, respectively.
Take “N2-(3-Aminosulfonyl-4-methylphenyl)-N4-(4-benzylphenyl)-5-fluoro-2,4-pyrimidinediamine [III-63]”: the half-inhibitory concentration (IC50) in test [1] (setting [6]) amounted to 315 nM; in the test with Primary human T-cells (setting [7]), 1880 nM.
As for “N2-(3-Aminosulfonyl-4-methylphenyl)-N4-(4-ethylaminocarbonylaminomethylphenyl)-5-fluoro-2,4-pyrimidinedia [III-121]”, the values for the concentration for half-maximal inhibition (IC50) (in test [1] (setting [4]); in the test on Primary human T-cells (setting [5])) were 575 nM and 1020 nM, respectively.
In the case of “N2-(3-Aminosulfonylphenyl)-N4-(4-chloro-3-trifluoromethylphenyl)-5-fluoro-2,4-pyrimidinediamine [VI-38]”, the IC50 in test [1] (setting [4]) was found to be 414 nM; in the test on Primary human T-cells (setting [5]), 2070 nM.

(Values after patent US11827628B2, “Compositions and methods for inhibition of the JAK pathway” (Rigel Pharmaceuticals, Inc., priority 2005, dated 2023).)
